Reference: article PMC6241247, “Development and Application of an UHPLC-MS/MS Method for Comparative Pharmacokinetic Study of Eight Major Bioactive Components from Yin Chen Hao Tang in Normal and Acute Liver Injured Rats” (Evidence-based Complementary and Alternative Medicine : eCAM, 2018)

How the values were obtained:
[1] = Plasma pharmacokinetics after oral administration of YCHT in model (CCl4-induced acute liver injury) rats, UHPLC-MS/MS
Procedure: The quality control (QC) and plasma samples were analyzed by an Agilent 6470 triple quadrupole LC–MS system (Agilent Technologies, Inc., Santa Clara, CA, USA), which consists of an Agilent 1290 Infinity II system connected to a triple quadrupole MS analyzer with an Agilent Jet Stream technologies electrospray ionization (ESI) interface. The Agilent 1290 LC system is equipped with degasser (G7116B), high speed pump (G7120A) and multisampler (G7167B). The samples (2 μL) were injected into the LC system. A MassHunter workstation was applied for LC–MS control and data acquisition.
Chromatographic separation was conducted with a CAPCELL PAK ADME (2.1 mm × 100 mm, 3 μm; Shiseido Co., Ltd., Tokyo, Japan). The mobile phase included 0.1% formic acid (A) and methanol (B), and the flow rate was 0.3 mL/min. Iridoid glycosides and anthraquinones were detected in the isocratic elution, which was kept 80% B for 5.5 min in the negative mode. The others were separated in the positive mode with another gradient program, which was maintained at 45% B for 0.5 min, then increased to 95% B in 2 min, and maintained at 95% B until 4.5 min, and the post time is 2 min.
The optimal parameters for the ESI interface were as follows: nebulizer, 45 psi; dry gas, 10 L/min; dry temp, 350°C; sheath gas, 11 L/min; sheath gas temp, 350°C; capillary voltage, 4000 V (in the positive mode) and 3500 V (in the negative mode); and delta EMV, 200 V. The MS parameters for iridoid glycosides and anthraquinones were improved in the negative mode, and the MS parameters for the other analytes were improved in positive mode.
The animals were randomly divided into the control group (n = 6) and the model group (n = 6): the model rats, i.e., acute liver injury rats, were induced by intraperitoneal injections of CCl4 diluted with olive oil (1:1, v/v) at a dose of 1.5 mL/kg.bw every day for three days, and the rats in the control group were administered with olive oil.
After being thawed at room temperature, 100 μL plasma was put in a 1.5 mL centrifuge tube, and then 100 μL IS solution and 300 μL acetonitrile was added. After the mixture was vortexed for 1 min, it was centrifuged at 12000 rpm for 10 min at 4°C to precipitate the protein. Then the supernatant was transferred to another clean centrifuge tube, and evaporated to dryness under nitrogen stream, the residue was reconstituted in 50 μL methanol-water (1:1, v/v). After centrifuging at 12000 rpm for 10 min at 4°C again, a 2 μL aliquot of supernatant was injected for LC–MS/MS analysis.
The validated method was used for the pharmacokinetic study. Standard diet was withheld over night before oral administration of YCHT, but with free access to water. And YCHT (60 g/kg) was administered to the rats by gastric perfusion, equivalent to 10.09 mg/kg of scoparone, 0.49 mg/kg scopoletin, 17.16 mg/kg of geniposide, 9.86 mg/kg of rhein, 2.66 mg/kg of aloe-emodin, 2.24 mg/kg of chrysophanol, 0.83 mg/kg of emodin, and 0.58 mg/kg of physcion.
A series of blood samples (0.3 mL) were collected from the rats' postorbital venous plexuses at 0 (pre-dose), 5, 10, 15, 30, 45, 60, 90, 120, 240, 480, 600, 720 and 1440 min, and put into heparinized tubes. The heparinized plasma was immediately centrifuged to separate at 3000 g for 10 min and stored at −80°C before experiments. The analytes' concentrations in plasma were determined by LC–MS/MS methods described above.
The plasma concentrations were expressed as arithmetic mean ± standard deviation (SD). And the mean concentration–time curves were calculated and plotted by DAS (version 3.0, Bio Guider Co., Shanghai, China), and the PK parameters consist of elimination half-life (t1/2), area under the plasma concentration-time curve (AUC), and mean residence time (MRT). The maximum plasma concentrations (Cmax) and corresponding peak time (Tmax) were obtained from the observed data directly.

[2] = Plasma pharmacokinetics after oral administration of YCHT in control (normal) rats, UHPLC-MS/MS; format: in vivo, Sprague-Dawley rats; settings: for CL/F / Cmax / MRT last / MRT inf / Tmax / half-life: Sprague-Dawley
Text: The validated method was used for the pharmacokinetic study.
P<0.05 represented statistical significance.

P-glycoprotein (P-gp) = system: P-glycoprotein (P-gp); parameters: method as in PMID 25776492, PMID 26121397; settings: cited from earlier work
[3] = Fr = (AUCmodel/AUCcontrol)∗100%, oral YCHT 60 g/kg
[4] = Sprague-Dawley, rat, in vivo, po, 60 g/kg
[5] = model (CCl4 liver injured) rats, oral YCHT 60 g/kg, plasma, n = 6
[6] = rat, in vivo, control rats, oral YCHT 60 g/kg, plasma, n = 6, read-out: CLz/F (converted)
[7] = rat, in vivo, control rats, oral YCHT 60 g/kg, plasma, n = 6, read-out: Cmax
[8] = rat, in vivo, control rats, oral YCHT 60 g/kg, plasma, n = 6, read-out: MRT0–t
[9] = rat, in vivo, control rats, oral YCHT 60 g/kg, plasma, n = 6, read-out: MRT0–∞
[10] = rat, in vivo, control rats, oral YCHT 60 g/kg, plasma, n = 6, read-out: Tmax
[11] = rat, in vivo, control rats, oral YCHT 60 g/kg, plasma, n = 6, read-out: t 1/2 (converted)
[12] = control rats, oral YCHT 60 g/kg, plasma, n = 6
[13] = Sprague-Dawley, rat, in vivo, po
[14] = Sprague-Dawley, rat, plasma, po, 60 g/kg

SMILES | Fr (relative bioavailability) [1, 3] [%] | CL/F [1, 4] [mL/min/kg] | Cmax [1, 4] [ng/mL] | MRT inf [1, 4] [h] | MRT last [1, 4] [h] | Tmax [1, 4] [h] | half-life [1, 4] [h] | AUC0–t [1, 5] | AUC0–∞ [1, 5] | CL/F [2, 6] [mL/min/kg] | MRT last [2, 8] [h] | MRT inf [2, 9] [h] | Tmax [2, 10] [h] | half-life [2, 11] [h] | AUC0–t [2, 12] [ug/L∗h] | AUC0–∞ [2, 12] [ug/L∗h] | CL/F ([2]; rat, in vivo, po, 60 g/kg) [mL/min/kg] | Cmax ([2]; rat, in vivo, po, 60 g/kg) [ng/mL] | MRT inf ([2]; rat, in vivo, po, 60 g/kg) [h] | MRT last ([2]; rat, in vivo, po, 60 g/kg) [h] | other results
O=C1c2cccc(O)c2C(=O)c2c(O)cc(CO)cc21 [Aloe-emodin] | 281.30 | 283 | 36.7 ± 3.09 | 4.07 ± 0.4 | 3.68 ± 0.34 | 0.58 ± 0.3 | 1.98 ± 0.71 | 153.62 ± 18.13∗∗ ug/L∗h | 158.71 ± 19.26∗∗ ug/L∗h | 737 | 3.34 ± 0.12 | 4.33 ± 0.84 | 0.54 ± 0.19 | 2.26 ± 1.15 | 54.61 ± 6.50 | 60.86 ± 6.68 |  |  |  |  | Cmax [2, 7]: 15.2 ± 1.68 ng/mL
Cc1cc(O)c2c(c1)C(=O)c1cccc(O)c1C2=O [Chrysophanol] |  | 257 | 37.6 ± 6.51 | 4.2 ± 0.77 | 3.43 ± 0.4 | 0.88 ± 0.35 | 3.12 ± 1.74 |  |  |  |  |  |  |  |  |  | 363 | 34.5 ± 4.99 | 3.34 ± 0.21 | 2.93 ± 0.16 | Fr (relative bioavailability) [1, 13]: 142.23%; AUC0–t ([1]; rat, in vivo, po, 60 g/kg): 141.29 ± 27.92∗∗ ug/L∗h; AUC0–∞ ([1]; rat, in vivo, po, 60 g/kg): 148.47 ± 25.04∗∗ ug/L∗h; Tmax ([2]; rat, in vivo, po, 60 g/kg): 0.63 ± 0.26 h; half-life ([2]; rat, in vivo, po, 60 g/kg): 2 ± 0.23 h; AUC0–t ([2]; rat, in vivo, po, 60 g/kg): 99.34 ± 10.12 ug/L∗h; AUC0–∞ ([2]; rat, in vivo, po, 60 g/kg): 103.57 ± 10.09 ug/L∗h
Cc1cc(O)c2c(c1)C(=O)c1cc(O)cc(O)c1C2=O [Emodin] |  | 1050 | 3.89 ± 0.89 | 6.64 ± 0.78 | 4.83 ± 0.25 | 0.17 ± 0.05 | 3.64 ± 0.79 | 11.66 ± 2.70 ug/L∗h | 13.49 ± 2.43 ug/L∗h | 1160 | 4.94 ± 0.26 | 6.65 ± 1.99 | 0.2 ± 0.17 | 3.33 ± 1.67 | 10.41 ± 0.83 | 12.06 ± 1.53 |  |  |  |  | Fr (relative bioavailability) [1, 13]: 112.01%; Cmax [2, 7]: 3.51 ± 0.59 ng/mL; P-gp substrate (P-glycoprotein (P-gp)): not P-gp substrates
COC(=O)C1=CO[C@@H](O[C@@H]2O[C@H](CO)[C@@H](O)[C@H](O)[C@H]2O)[C@@H]2C(CO)=CC[C@H]12 [Geniposide] | 257.67 | 55.7 | 1860 ± 109 | 5.99 ± 0.61 | 4.68 ± 0.57 | 0.58 ± 0.2 | 6.59 ± 2.46 | 5000.36 ± 755.13∗∗ ug/L∗h | 5223.83 ± 746.92∗∗ ug/L∗h | 147 | 4.57 ± 0.41 | 4.8 ± 0.47 | 0.33 ± 0.13 | 3.55 ± 0.38 | 1940.63 ± 210.72 | 1958.65 ± 206.96 |  |  |  |  | Cmax ([2]; rat, in vivo, 60 g/kg, normal group, oral YCHT, read-out: Cmax): 751 ± 47.7 ng/mL
COc1cc(O)c2c(c1)C(=O)c1cc(C)cc(O)c1C2=O [Physcion] | 213.68 | 211 | 9.99 ± 2.86 | 5.26 ± 1.3 | 4.07 ± 0.4 | 2.58 ± 1.11 | 3.06 ± 2.37 | 44.98 ± 13.92∗∗ ug/L∗h | 48.47 ± 12.74∗∗ ug/L∗h |  |  |  |  |  | 21.05 ± 4.04 | 22.44 ± 5.54 | 450 | 8.45 ± 1.61 | 3.54 ± 0.49 | 2.88 ± 0.25 | Tmax ([2]; rat, in vivo, po, 60 g/kg): 1.25 ± 0.27 h; half-life ([2]; rat, in vivo, po, 60 g/kg): 2.65 ± 0.99 h
O=C(O)c1cc(O)c2c(c1)C(=O)c1cccc(O)c1C2=O [Rhein] | 268.45 | 31.2 | 1760 ± 140 | 4.67 ± 0.65 | 4.38 ± 0.41 | 0.54 ± 0.19 | 3.62 ± 1.97 | 5453.29 ± 1202.14∗∗ ug/L∗h | 5518.78 ± 1256.46∗∗ ug/L∗h |  |  |  |  |  | 2031.40 ± 385.58 | 2074.39 ± 387.77 | 82 | 664 ± 50.3 | 5.38 ± 0.49 | 4.79 ± 0.36 | Tmax ([2]; rat, in vivo, po, 60 g/kg): 0.33 ± 0.13 h; half-life ([2]; rat, in vivo, po, 60 g/kg): 4.64 ± 2.14 h
COc1cc2ccc(=O)oc2cc1OC [Scoparone] | 227.64 |  |  |  |  |  |  | 5196.54 ± 513.37∗∗ ug/L∗h | 5197.06 ± 513.33∗∗ ug/L∗h |  |  |  |  |  | 2282.77 ± 390.03 | 2347.92 ± 428.69 |  |  |  |  | CL/F [1, 14]: 32.7 mL/min/kg; Cmax [1, 14]: 1770 ± 107 ng/mL; MRT inf [1, 14]: 3.95 ± 0.26 h; MRT last [1, 14]: 3.94 ± 0.26 h; Tmax [1, 14]: 0.33 ± 0.13 h; half-life [1, 14]: 1.58 ± 0.13 h; AUC in model rats higher than in normal rats ([1]; model vs normal rats, oral YCHT): approximately 2 fold; CL/F ([2]; rat, control rats, oral YCHT 60 g/kg, plasma, n = 6, read-out: CLz/F (converted)): 73.7 mL/min/kg; Cmax ([2]; rat, control rats, oral YCHT 60 g/kg, plasma, n = 6, read-out: Cmax): 939 ± 112 ng/mL; MRT last ([2]; rat, control rats, oral YCHT 60 g/kg, plasma, n = 6, read-out: MRT0–t): 3.19 ± 0.16 h; MRT inf ([2]; rat, control rats, oral YCHT 60 g/kg, plasma, n = 6, read-out: MRT0–∞): 3.51 ± 0.14 h; Tmax ([2]; rat, control rats, oral YCHT 60 g/kg, plasma, n = 6, read-out: Tmax): 0.54 ± 0.1 h; half-life ([2]; rat, control rats, oral YCHT 60 g/kg, plasma, n = 6, read-out: t 1/2 (converted)): 2.14 ± 0.71 h
